Experimental data as given in US4978663A, “5-(1-aminocyclohexyl)-2(1H)-pyridinone compounds which have pharmaceutical utility” (priority 1989, dated 1990).

Legend:
[1] = 2-phenyl-1,4-benzoquinone-induced writhing test in mice (PQW), analgesic activity; format: in vivo
[2] = Dark Avoidance Assay (reversal of scopolamine induced memory deficit); format: in vivo; settings: mice, s.c., retest after 24 hours
Method: In this assay mice are tested for their ability to remember an unpleasant stimulus for a period of 24 hours. A mouse is placed in a chamber that contains a dark compartment; a strong incadescent light drives it to the dark compartment, where an electric shock is administered through metal plates on the floor. The animal is removed from the testing apparatus and tested again, 24 hours later, for the ability to remember the electric shock.
If scopolamine, an anticholinergic that is known to cause memory impairment, is administered before an animal's initial exposure to the test chamber, the animal re-enters the dark compartment shortly after being placed in the test chamber 24 hours later.

## CC1(C)CCC(N)(c2ccc(=O)[nH]c2)CC1.Cl [5-(1-Amino-4,4-dimethylcyclohexyl)-2(1H)-pyridinone hydrochloride]
[1]
  Analgesic PQW, % Inhibition of Writhing at 20 mg/kg., s.c.: 62%
[2]; 2.5 mg/kg
  % of animals with scopolamine induced memory deficit reversal: 20%

## Cl.NC1(c2ccc(=O)n(Cc3ccccc3)c2)CCCCC1 [5-(1-Aminocyclohexyl)-1-(phenylmethyl)-2(1H)-pyridinone hydrochloride]
[1]
  Analgesic PQW, % Inhibition of Writhing at 20 mg/kg., s.c.: 42%
[2]; 0.16 mg/kg
  % of animals with scopolamine induced memory deficit reversal: 20%

## NC1(c2ccc(=O)n(CC#CCN3CCCC3)c2)CCCCC1 [5-(1-Aminocyclohexyl)-1-[4-(pyrrolidin-1-yl)-2-butynyl]-2(1H)-pyridinone]
[1]
  Analgesic PQW, % Inhibition of Writhing at 20 mg/kg., s.c.: 53%

## CC(=O)NC1(c2ccc(=O)n(C)c2)CCCCC1 [N-[1-(1,6-Dihydro-1-methyl-6-oxo-3-pyridinyl)cyclohexyl]acetamide]
[2]; 0.63 mg/kg
  % of animals with scopolamine induced memory deficit reversal: 33%

## O=C(CN1CCC(C(=O)c2ccc(F)cc2)CC1)NC1(c2ccc(=O)[nH]c2)CCCCC1 [N-[1-(1,6-Dihydro-6-oxo-3-pyridinyl)cyclohexyl][4-(4-fluorobenzoyl)]-1-piperidineacetamide]
[1]
  Analgesic PQW, % Inhibition of Writhing at 20 mg/kg., s.c.: 77%

## CC(=O)NC1(c2ccc(=O)[nH]c2)CCCCC1 [N-[1-(1,6-Dihydro-6-oxo-3-pyridinyl)cyclohexyl]acetamide]
[1]
  Analgesic PQW, % Inhibition of Writhing at 20 mg/kg., s.c.: 58%

## O=C(NC1(c2ccc(=O)[nH]c2)CCCCC1)c1ccccc1 [N-[1-(1,6-Dihydro-6-oxo-3-pyridinyl)cyclohexyl]benzamide]
[1]
  Analgesic PQW, % Inhibition of Writhing at 20 mg/kg., s.c.: 72%

## CNC(=O)Oc1ccc2c(c1)[C@]1(C)CCN(C)[C@@H]1N2C [Physostigmine, reference compound]
[2]; 0.31 mg/kg
  % of animals with scopolamine induced memory deficit reversal: 20%

## CCC(=O)O[C@](Cc1ccccc1)(c1ccccc1)[C@H](C)CN(C)C [Propoxyphene, reference compound]
[1]; 3.9 mg/kg, s.c.
  Analgesic PQW, % Inhibition of Writhing: 50%

## CC(=O)NC1(c2ccc(=O)n(C)c2)CCC(C(C)(C)C)CC1 (stereo not drawn) [cis-N-[1-(1,6-Dihydro-1-methyl-6-oxo-3-pyridinyl)-4-(1,1-dimethylethyl)cyclohexyl]acetamide]
[1]
  Analgesic PQW, % Inhibition of Writhing at 20 mg/kg., s.c.: 47%
[2]; 1.3 mg/kg
  % of animals with scopolamine induced memory deficit reversal: 33%
